Laboratory results as given in PubChem BioAssay AID2060344 (Molecular Pharmacology Branch, DTP, NCI, 2025).

Tested on: SK-MEL-2 multi-cell spheroids, viability
Assay: Anticancer human tumor SK-MEL-2 cell line growth inhibition [TAK];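 note: spheroids exposed to drugs for seven days before readout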;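 for viability, T/C: percent of DMSO vehicle control luminescence so 100% = untreated viability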
Conditions: for IC50: curve of first compound; for viability, T/C: stronger effect = lower value
In short: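 Tumor cells were grown as spheroids with HUVEC and hMSC (60:25:15) and treated with targeted agents combined with TAK-243 or ipatasertib. Drugs were tested in half-log steps down from near the clinical Cmax, or from 10 microM where Cmax was unknown.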

[1] = second compound 0.3 µM, first compound 0.0316 µM
[2] = second compound 0.3 µM, first compound 0.1 µM
[3] = second compound 0.3 µM, first compound 0.316 µM
[4] = second compound 0.3 µM, first compound 1 µM
[5] = second compound 0.949 µM, first compound 0.0316 µM
[6] = second compound 0.949 µM, first compound 0.1 µM
[7] = second compound 0.949 µM, first compound 0.316 µM
[8] = second compound 0.949 µM, first compound 1 µM
[9] = second compound 3 µM, first compound 0.0316 µM
[10] = second compound 3 µM, first compound 0.1 µM
[11] = second compound 3 µM, first compound 0.316 µM
[12] = second compound 3 µM, first compound 1 µM
[13] = second compound 9.49 µM, first compound 0.0316 µM
[14] = second compound 9.49 µM, first compound 0.1 µM
[15] = second compound 9.49 µM, first compound 0.316 µM
[16] = second compound 9.49 µM, first compound 1 µM
[17] = second compound 30 µM, first compound 0.0316 µM
[18] = second compound 30 µM, first compound 0.1 µM
[19] = second compound 30 µM, first compound 0.316 µM
[20] = second compound 30 µM, first compound 1 µM

Compound	IC50 (second compound 0.3 µM) [nM]	IC50 (second compound 0.949 µM) [nM]	IC50 (second compound 3 µM) [nM]	IC50 (second compound 9.49 µM) [nM]	IC50 (second compound 30 µM) [nM]	viability, T/C [1] [%]	viability, T/C [2] [%]	viability, T/C [3] [%]	viability, T/C [4] [%]	viability, T/C [5] [%]	viability, T/C [6] [%]	viability, T/C [7] [%]	viability, T/C [8] [%]	viability, T/C [9] [%]	viability, T/C [10] [%]	viability, T/C [11] [%]	viability, T/C [12] [%]	viability, T/C [13] [%]	viability, T/C [14] [%]	viability, T/C [15] [%]	other results
COc1c(OCCCN2CCOCC2)ccc2c3n(c(=NC(=O)c4cnc(N)nc4)nc12)CCN3 + CC(C)NCC(C(=O)N1CCN(c2ncnc3c2C(C)CC3O)CC1)c1ccc(Cl)cc1	51.3	29.4	20.8	14.5	9.89	50.6	45.6	30.9	19.5	47.1	38.4	27.6	21	40.2	34.2	26.1	19.5	37	31.4	24.6	viability, T/C (second compound 0.3 µM, first compound 0.00316 µM): 92%; viability, T/C (second compound 0.3 µM, first compound 0.01 µM): 72.5%; viability, T/C (second compound 0.949 µM, first compound 0.00316 µM): 81%; viability, T/C (second compound 0.949 µM, first compound 0.01 µM): 65%; viability, T/C (second compound 3 µM, first compound 0.00316 µM): 68.5%; viability, T/C (second compound 3 µM, first compound 0.01 µM): 62.9%; viability, T/C (second compound 9.49 µM, first compound 0.00316 µM): 59.8%; viability, T/C (second compound 9.49 µM, first compound 0.01 µM): 57.6%; viability, T/C [16]: 21.1%; viability, T/C (second compound 30 µM, first compound 0.00316 µM): 52.5%; viability, T/C (second compound 30 µM, first compound 0.01 µM): 50.8%; viability, T/C [17]: 41.6%; viability, T/C [18]: 28.8%; viability, T/C [19]: 21.1%; viability, T/C [20]: 16.3%
Cc1nc(NC(=O)N2CCCC2C(N)=O)sc1-c1ccnc(C(C)(C)C(F)(F)F)c1 (stereo not given) + CC(C)NCC(C(=O)N1CCN(c2ncnc3c2C(C)CC3O)CC1)c1ccc(Cl)cc1	> 10000	> 10000	> 10000	> 10000	218	97	84.7	70.5	79.8	85	74.7	64.8	65.8	66.1	67.3	52.8	58.8	56	56.4	48.7	viability, T/C (second compound 0.3 µM, first compound 3.16 µM): 75.3%; viability, T/C (second compound 0.3 µM, first compound 10 µM): 55.6%; viability, T/C (second compound 0.949 µM, first compound 3.16 µM): 59.5%; viability, T/C (second compound 0.949 µM, first compound 10 µM): 49.4%; viability, T/C (second compound 3 µM, first compound 3.16 µM): 57.3%; viability, T/C (second compound 3 µM, first compound 10 µM): 51.2%; viability, T/C [16]: 51.1%; viability, T/C (second compound 9.49 µM, first compound 3.16 µM): 55.9%; viability, T/C (second compound 9.49 µM, first compound 10 µM): 49.2%; viability, T/C [17]: 52.4%; viability, T/C [18]: 55.8%; viability, T/C [19]: 46.2%; viability, T/C [20]: 43.7%; viability, T/C (second compound 30 µM, first compound 3.16 µM): 50.3%; viability, T/C (second compound 30 µM, first compound 10 µM): 40%
